Reference: patent US12187624B2, “Method of acylating amino acids and uses of N-acyl amino acid products” (NewSouth Innovations Pty Limited, priority 2019, dated 2025)
Values joined by “and” are separate entries in the source; they are usually repeats but may differ in a detail not shown here. Equal values may be shown once.

What was measured:
[1] = Ion flotation of calcium solution in air bubble column, ICP-MS analysis
Procedure: (§1) In a model experiment, 0.01M of the N-octanoyl-cys surfactant was dissolved (with heating around 65° C. while stirring) in a 5 mg L^−1 solution (i.e. 5 ppm) of Cd containing 0.1 M NaOH and finally made up to 100 ml using Milli-Q water, with the pH of around 8.
(§2) The solution was then poured into a column (with 30 cm height and 3 cm diameter) while a 2 L/min flow of air gas was passed through it with air pump (Hiblow HP40, Philippines). Two samples were taken after each of 30 and 60 minutes from around 2 cm top of the sinter, and the Cd concentrations of each sample was determined by ICP-MS analysis. The upper-outlet foam was also collected in a waste container using an outlet tube.
In the second series of ion flotation experiments, N-octanoyl-cys surfactant (obtained by Exemplary method 1) was used for removing calcium ions using air in the ion flotation process.

[2] = Ion flotation of Cd solution in air bubble column, ICP-MS analysis; conditions: Csurfactant = 0.01M
Procedure: as §1, §2
The same procedure was used with the N-octyl-cys surfactant in the flotation experiment, but where the pH of the solution was increased to 12, to enable this surfactant to successfully produce a foam (this difference is discussed later).

[3] = cited from earlier work
[4] = Foaming test of surfactant solutions at different pH; format: physicochemical; conditions: Csurfactant = 0.01M; solutions at pH 3, 6, 9, 12 (FIG. 6)
Excerpt: FIG. 6 is a pair of photos from the foaming test described in Example 2; the first photo (upper) is a photo of N-octanoyl cysteine solutions at: pH 3 (far left), pH 6 (middle left), pH 9 (middle right) and pH 12 (far right) and the second photo (lower) is a photo of N-octyl cysteine solutions at: pH 3 (far left), pH 6 (middle left), pH 9 (middle right) and pH 12 (far right). (Csurfactant=0.01M and the pH adjusted with […]).

[5] = Critical micelle concentration (CMC) from conductivity versus surfactant concentration; format: physicochemical
Procedure: The CMC of N-octanoyl-cys prepared by this method was determined to be 0.1M. The CMC was determined using a Bench-Top water quality meter, SPER SCIENTIFIC Instrument model 860033 to measure the conductivity and pH of the surfactant solution. The CMC value of the surfactant was measured by plotting conductivity values versus different surfactant concentrations at pH 9 by adding NaOH solution (0.1 mol L^−1) and 25.0° C. The CMC was obtained as the point of sharp transition in the slope of conductivity with increasing surfactant concentration (data not shown).
The CMC of the N-octanoyl-cys surfactant prepared by Exemplary method 1, in Na^+ form at pH 8, was determined (as reported above for Comparative method 1 above from measurements of the electrical conductivity with surfactant concentration) to be about 0.09 mol/L, see FIG. 3.
The same protocols as described above were used to determine the CMC and melting point of the twice-recrystallised N-octyl-cysteine surfactant. The values measured were 0.1M and 145° C., respectively. These values are consistent with literature values.

[6] = pH 12, Ccalcium = 5 mg L^−1, Csurfactant = 0.01M, air bubbles

Compound | Adsorption (%) After 60 min ([1]; pH 8, Ccalcium = 5 mg L^−1, Csurfactant = 0.01M) | C(mg L^−1) (RSD %) After 30 min ([1]; pH 8, Ccalcium = 5 mg L^−1, Csurfactant = 0.01M, air bubbles) | Adsorption (%) After 60 min ([2]; operating pH 8, 5 mg L^−1 Cd, listed as N-octanoyl-cys (Comparative method 1)) [%] | Adsorption (%) After 60 min ([2]; operating pH 8, 5 mg L^−1 Cd, listed as N-octanoyl-cys (Exemplary method 1)) [%] | Adsorption (%) After 60 min ([2]; operating pH 12, 5 mg L^−1 Cd) [%] | pKa of the amide group (protonation) [3] | pH at which the surfactant starts foaming (foaming point) [4] | CMC ([5]; N-octanoyl-cys prepared by Comparative method 1, pH 9 (NaOH), 25.0° C.) [M] | CMC ([5]; prepared by Exemplary method 1, in Na+ form at pH 8) | Adsorption (%) After 60 min ([1]; pH 12, Ccalcium = 5 mg L^−1, Csurfactant = 0.01M) | C(mg L^−1) (RSD %) After 30 min [1, 6] | C(mg L^−1) (RSD %) After 60 min [1, 6] | pKa of the amine group (protonation) [3] | CMC ([5]; twice-recrystallised surfactant, same protocols as for N-octanoyl-cys) [M]
CCCCCCCC(=O)N[C@@H](CS)C(=O)O [N-octanoyl-cys, N-octanoyl-cysteine] | 97% and 97.3% | 0.72 (42.02) mg L^−1 | 99.2 | 99.8 | 12.3 | around −0.5 | ~6 | 0.1 | about 0.09 mol/L | – | – | – | – | –
CCCCCCCCN[C@@H](CS)C(=O)O [N-octyl-cys, N-octyl-cysteine] | – | – | – | – | 14.2 | – | > 12 | – | – | 14% and 14.6% | 4.89 (0.87) mg L^−1 | 4.27 (3.31) mg L^−1 | about 10.7 | –
N-octyl-cysteine [reference compound] | – | – | – | – | – | – | – | – | – | – | – | – | – | 0.1
